pIC50: −log10 of the molar value. Converted amounts (≈) assume the structure as drawn.
What was measured:
[1] = system: Mycolicibacterium smegmatis; experiment: Antimycobacterial activity against Mycobacterium smegmatis MC2 155 ATCC 14468 after 32 hrs by turbidimetry; type: functional; conditions: MC2 155 ATCC 14468, 32 h
A549 = experiment: Cytotoxicity against human A549 cells after 48 hrs by MTT assay; type: cell-based; conditions: A549, 48 h

SMILES | MIC50 [1] [µg/mL] | pIC50 (A549) | MIC90 [1] [µg/mL] | IC50 (A549) [µg/mL]
Cc1nc2ccccc2cc1-c1cc[nH]n1 | 14.7 (≈ 70.1 µM) | 3.86 |  | 
Cc1nc2ccccc2cc1C(=O)NN | > 50 | 4.02 |  | 
Cc1nc2ccccc2cc1-c1ccnc(N)n1 | > 50 | 4.03 |  | 
Cc1nc2ccccc2cc1-c1csc(N)n1 | > 50 | < 3.70 |  | 
Cc1nc2ccccc2cc1-c1cn2ccccc2n1 | > 50 | 3.93 |  | 
Cc1nc2ccccc2cc1-c1nnc(CCc2ccccc2)o1 | 35 (≈ 111 µM) | 3.84 |  | 
COc1cc(OC)c(C2CC(c3cc4ccccc4nc3C)=NN2C(C)=O)c(OC)c1 (centres undefined) | 57.9 (≈ 138 µM) | 3.77 |  | 
Cc1nc2ccccc2cc1-c1nnc(C(C)c2ccccc2)o1 (centres undefined) |  |  | 35.9 (≈ 114 µM) | 165
Cc1ccc(-c2nnc(-c3cc4ccccc4nc3C)o2)cc1 |  |  | 35 (≈ 116 µM) | 175
Cc1nc2ccccc2cc1-c1nnc(-c2cccc(Oc3ccccc3)c2)o1 |  |  | > 70 | 146
CCCCCc1nnc(-c2cc3ccccc3nc2C)o1 |  |  | > 70 | 72.2
Cc1nc2ccccc2cc1-c1nnc(-c2ccc(C(C)C)cc2)o1 |  |  | 41 (≈ 125 µM) | 103
COc1ccc(OC)c(-c2nnc(-c3cc4ccccc4nc3C)o2)c1 |  |  | 29.2 (≈ 84 µM) | 134
COc1cc(-c2nnc(-c3cc4ccccc4nc3C)o2)cc(OC)c1OC |  |  | 61.9 (≈ 164 µM) | 113
Cc1nc2ccccc2cc1-c1nnc(-c2ccccc2C(=O)O)o1 |  |  | 43.3 (≈ 131 µM) | 106
Cc1nc2ccccc2cc1-c1nnc(-c2cccnc2)o1 |  |  | 22.7 (≈ 78.8 µM) | 139
Cc1nc2ccccc2cc1-c1nnc(-c2ccc(F)c(C(F)(F)F)c2)o1 |  |  | 47.5 (≈ 127 µM) | 93.3
Cc1nc2ccccc2cc1-c1nnc(-c2ccc(OC(F)(F)F)cc2)o1 |  |  | > 70 | 91.1
Cc1nc2ccccc2cc1-c1nnc(-c2coc3ccccc3c2=O)o1 |  |  | 16.8 (≈ 47.4 µM) | 111
Cc1nc2ccccc2cc1-c1nnc(-c2cccs2)o1 |  |  | 39.7 (≈ 135 µM) | 99.4
Cc1nc2ccccc2cc1-c1nnc(-c2cn(-c3ccccc3)nc2-c2ccccc2)o1 |  |  | > 70 | > 200

SMILES | MIC50 [1] [µg/mL] | pIC50 (A549) | MIC90 [1] [µg/mL] | IC50 (A549) [µg/mL]
CC(=O)N1N=C(c2cc3ccccc3nc2C)CC1c1ccc(C#N)cc1 (centres undefined) |  |  | > 70 | > 200
CC(=O)N1N=C(c2cc3ccccc3nc2C)CC1c1ccc(N(C)C)cc1 (centres undefined) |  |  | > 70 | 110
COc1ccc(C2CC(c3cc4ccccc4nc3C)=NN2C(C)=O)cc1 (centres undefined) |  |  | > 70 | 116
COc1ccc(OC)c(C2CC(c3cc4ccccc4nc3C)=NN2C(C)=O)c1 (centres undefined) |  |  | > 70 | 111
COc1cc(C2CC(c3cc4ccccc4nc3C)=NN2C(C)=O)cc(OC)c1OC (centres undefined) |  |  | 52.1 (≈ 124 µM) | > 200
COc1ccc(C2CC(c3cc4ccccc4nc3C)=NN2C(C)=O)c(OC)c1OC (centres undefined) |  |  | 46.2 (≈ 110 µM) | 86.5
COc1ccc(C2CC(c3cc4ccccc4nc3C)=NN2C(C)=O)cc1OC (centres undefined) |  |  | > 70 | > 200
CC(=O)N1N=C(c2cc3ccccc3nc2C)CC1/C=C/c1ccccc1 (centres undefined) |  |  | > 70 | 93.3
CC(=O)N1N=C(c2cc3ccccc3nc2C)CC1c1ccc([N+](=O)[O-])cc1 (centres undefined) |  |  | 50.7 (≈ 135 µM) | > 200
CC(=O)N1N=C(c2cc3ccccc3nc2C)CC1c1cccc(Oc2nc(Cl)c(Cl)cc2Cl)c1 (centres undefined) |  |  | 64.9 (≈ 123 µM) | 72.7
CC(=O)N1N=C(c2cc3ccccc3nc2C)CC1c1ccc(Oc2nc(Cl)c(Cl)cc2Cl)cc1 (centres undefined) |  |  | > 70 | > 200
CCOc1c(F)c(F)c(C2CC(c3cc4ccccc4nc3C)=NN2C(C)=O)c(F)c1F (centres undefined) |  |  | > 70 | 115
CC(=O)N1N=C(c2cc3c(Cl)cccc3nc2C)CC1c1ccc(C)cc1 (centres undefined) |  |  | > 70 | 166
Cc1nc2ccccc2cc1C1=NN(c2ccccc2)C(c2ccc(Br)cc2)C1 (centres undefined) |  |  | > 70 | 93
COc1cc(C2CC(c3cc4ccccc4nc3C)=NN2c2ccccc2)cc(OC)c1OC (centres undefined) |  |  | > 70 | > 200
COc1ccc(C2CC(c3cc4ccccc4nc3C)=NN2c2ccccc2)c(OC)c1OC (centres undefined) |  |  | 43.5 (≈ 96 µM) | 143
Cc1cc(C)n(C(=O)c2cc3ccccc3nc2C)n1 |  |  | 24.1 (≈ 90.9 µM) | 97.9
Cc1nc2ccccc2cc1C(=O)n1nc(C)c(C2CCCCO2)c1C (centres undefined) |  |  | > 70 | 143
CC(=O)n1ccc(-c2cc3ccccc3nc2C)n1 |  |  | 17.3 (≈ 69 µM) | 87
NNC(=O)c1ccncc1 [ISONIAZID] | 12.1 (≈ 88 µM) |  | 11.8 (≈ 85.9 µM) | 
CO[C@H]1/C=C/O[C@@]2(C)Oc3c(C)c(O)c4c(O)c(c(/C=N/N5CCN(C)CC5)c(O)c4c3C2=O)NC(=O)/C(C)=C\C=C\[C@H](C)[C@H](O)[C@@H](C)[C@@H](O)[C@@H](C)[C@H](OC(C)=O)[C@@H]1C [RIFAMPIN] | 2.08 (≈ 2.53 µM) |  | 2.15 (≈ 2.61 µM) | 

From ChEMBL document CHEMBL3085775, “Design, diversity-oriented synthesis and structure activity relationship studies of quinolinyl heterocycles as antimycobacterial agents” (Eur J Med Chem, 2013)
